Laboratory results reported in PMC9732152 (The Laryngoscope, 2022).
Entries after “also recorded” stand apart in the source; their conditions may differ. Structures can show the parent of a compound that is named as a salt. Square brackets hold non-standard residues; d marks the D form. Peptide text beside a SMILES is read from it. * marks the point of attachment. Sta = CC(C)C[C@H](N)[C@@H](O)CC(=O)O; Isovaleryl = CC(C)CC(=O)*

Tests used:
[1] = tested on: pepsin-mediated laryngeal damage; assay: Laryngopharyngeal reflux mouse model; assay type: in vivo, female Jackson A/J mice
porcine pepsin A = porcine pepsin A (Sus scrofa, UniProt P00791); assay type: binding; settings: 100nM pepstatin-Alexa647 probe, 0.03U/ul porcine pepsin A, 37.5% DMSO, 0.1 M HCl pH 1
porcine pepsin = porcine pepsin (Sus scrofa, UniProt P00791); assay: Fluorescence polarization peptic activity assay with casein-Alexa647 substrate; assay type: biochemical; settings: for inhibition of pepsin (IC50): 200nM casein-Alexa647 probe, 0.01U/μL pepsin, 5% DMSO, 0.1 M HCl pH 1
[2] = cited from earlier work
pepsin = settings: cited from earlier work
[3] = aerosol with saline (solvent) instillation
[4] = gavage with saline (solvent) instillation

Chain of porcine pepsin A (P00791 60-385): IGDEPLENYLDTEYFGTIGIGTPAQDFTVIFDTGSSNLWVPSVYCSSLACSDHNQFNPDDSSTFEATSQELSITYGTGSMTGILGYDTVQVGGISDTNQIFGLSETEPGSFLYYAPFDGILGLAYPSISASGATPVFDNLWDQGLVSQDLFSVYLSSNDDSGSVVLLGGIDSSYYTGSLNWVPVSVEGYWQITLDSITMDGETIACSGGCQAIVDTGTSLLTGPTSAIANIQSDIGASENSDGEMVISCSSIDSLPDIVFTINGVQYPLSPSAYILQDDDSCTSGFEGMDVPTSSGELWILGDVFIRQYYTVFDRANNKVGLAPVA
Chain of porcine pepsin (P00791 60-385): as above

Row | Compound | laryngeal epithelial histology/reactivity elicited by the drug itself [1, 3] | laryngeal epithelial histology/reactivity elicited by the drug itself [1, 4] | binding to pepsin (porcine pepsin A) | inhibition of pepsin (IC50) (porcine pepsin) | known side effects and interactions [2] | apoptosis in laryngeal epithelium ([1]; aerosol, inhaled mass 12mg/kg/day darunavir, pepsin-pH7 instillation) | IC50 for pepsin compared with the other inhibitors (porcine pepsin; comparison among the HIV protease inhibitors tested) | affinity for pepsin (pepsin)
1 | CC(C)CN(C[C@@H](OP(=O)(O)O)[C@H](Cc1ccccc1)NC(=O)O[C@H]1CCOC1)S(=O)(=O)c1ccc(N)cc1 [fosamprenavir] | normal histology | normal histology | – | – | – | – | – | –
2 | CC(C)(C)NC(=O)[C@@H]1C[C@@H]2CCCC[C@@H]2CN1C[C@@H](O)[C@H](Cc1ccccc1)NC(=O)[C@H](CC(N)=O)NC(=O)c1ccc2ccccc2n1 [saquinavir, saquinavir mesylate] | – | – | bound | inhibited pepsin at low micromolar concentrations; also recorded: low micromolar range | QT prolongation, heart block, high blood lipids and liver problems | – | – | –
3 | CC(C)CN(C[C@@H](O)[C@H](Cc1ccccc1)NC(=O)O[C@H]1CO[C@H]2OCC[C@H]21)S(=O)(=O)c1ccc(N)cc1 [darunavir, darunavir ethanolate] | absent | mild reactivity (rare intraepithelial lymphocytes) | bound | inhibited pepsin at low micromolar concentrations; also recorded: low micromolar range | – | no apoptosis was observed | lowest IC50 | –
4 | CC(C)c1nc(CN(C)C(=O)N[C@H](C(=O)N[C@@H](Cc2ccccc2)C[C@H](O)[C@H](Cc2ccccc2)NC(=O)OCc2cncs2)C(C)C)cs1 [ritonavir] | – | – | bound | – | minimal side effects (diarrhea, nausea and vomiting) | – | – | –
5 | CC(C)CC(=O)N[C@H](C(=O)N[C@H](C(=O)N[C@@H](CC(C)C)[C@@H](O)CC(=O)N[C@@H](C)C(=O)N[C@@H](CC(C)C)[C@@H](O)CC(=O)O)C(C)C)C(C)C [pepstatin, pepstatin A] (Isovaleryl-VV[Sta]A[Sta]-OH) | – | – | – | – | – | – | – | sub-nanomolar
6 | CC(C)CN(C[C@@H](O)[C@H](Cc1ccccc1)NC(=O)O[C@H]1CCOC1)S(=O)(=O)c1ccc(N)cc1 [amprenavir] | – | – | bound | inhibited pepsin at low micromolar concentrations; also recorded: low micromolar range | minimal side effects (diarrhea, nausea and vomiting) | – | – | –
